Values of other authors, collected in article PMC7373161, “Impact of Food and Drink Administration Vehicles on Paediatric Formulation Performance: Part 1—Effects on Solubility of Poorly Soluble Drugs” (AAPS PharmSciTech, 2020).

Nc1ccc(O)c(C(=O)O)c1 [mesalazine]
isoelectric point (pI): 4.3 pH
